The text below walks through data of US5834482A, “Heterocyclic chemistry” (Novo Nordisk A/S, priority 1995, dated 1998).

For test [1], the system named is GABA uptake. Particulars: cited from earlier work.
Another test addresses T1, GABA uptake carrier (Rattus norvegicus, UniProt P31647).
T1 construct: A crude membrane preparation was prepared from selected brain areas; from tissue
T1 sequence (P31647 1-627): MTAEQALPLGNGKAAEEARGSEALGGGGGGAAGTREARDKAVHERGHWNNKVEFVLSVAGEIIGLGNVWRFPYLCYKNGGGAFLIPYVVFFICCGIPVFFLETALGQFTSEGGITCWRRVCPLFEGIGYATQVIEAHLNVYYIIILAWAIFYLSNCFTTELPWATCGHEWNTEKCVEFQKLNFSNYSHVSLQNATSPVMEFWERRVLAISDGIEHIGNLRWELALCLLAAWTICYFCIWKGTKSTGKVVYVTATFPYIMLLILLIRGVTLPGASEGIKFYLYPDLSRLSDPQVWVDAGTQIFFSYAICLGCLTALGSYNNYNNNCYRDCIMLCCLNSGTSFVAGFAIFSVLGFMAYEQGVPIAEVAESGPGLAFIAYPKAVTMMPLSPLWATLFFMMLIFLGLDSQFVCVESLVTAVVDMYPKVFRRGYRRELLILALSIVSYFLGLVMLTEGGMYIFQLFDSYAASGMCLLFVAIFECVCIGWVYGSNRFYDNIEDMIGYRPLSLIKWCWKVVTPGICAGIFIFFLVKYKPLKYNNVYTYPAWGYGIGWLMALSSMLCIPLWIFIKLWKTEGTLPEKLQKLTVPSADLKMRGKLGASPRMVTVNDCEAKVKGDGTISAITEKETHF
The experiment in a line: 3H-GABA uptake in crude membrane preparation from selected brain areas (in presence of NNC 05-0711). In kind it is biochemical. The procedure: ^3 H-GABA uptake was measured by a modification of the method of Fjalland et al., (1978). A crude membrane preparation was prepared from selected brain areas by homogenization in 20 ml of ice-cold 0.32M sucrose with a hand driven teflon/glass Potter-Elvehjem homogenizer. homogenate was centrifuged at 4° C. for 10 min. at 1000×g, and the pellet was discarded. The supernatant was recentrifuged at 4° C. for 20 min. at 20.000×g. The pellet was then homogenized in 50 volumes 0.32M sucrose. To 300 μl uptake-buffer ([…], 15.3 mM KCl, 6.67 mM MgSO4, 3.83 mM CaCl2, 16.67 mM glucose, 66.67 mM Tris, pH 7.5 at 30° C.) was added 1-(2-(((diphenylmethylene)amino)oxy)ethyl)-1,2,5,6-tetrahydro-3-pyridinecarboxylic acid (NNC 05-0711) (1 mM final concentration), 100 μl test substance and 50 μl tissue suspension. The sample were mixed and incubated at 30° C. for 8 min. Then ^3 H-GABA (0.9 nM final concentration) and unlabelled GABA (25 nM final concentration) was added, and the incubation was continued for an additional 8 min. The reaction was terminated by rapid filtration through Whatman GF/F glass fiber filters under vacuum. The filters were then washed twice in 10 ml of ice-cold isotonic saline, and the tritium trapped on the filters was quantified by conventional scintillation spectroscopy. Non-GABA uptake carrier mediated uptake of ^3 H-GABA was determined in the presence of […].

Test [2] has as its system GABA uptake. Particulars: into presynaptic nerve terminals and glial cells; cited from earlier work.
For another test, the system named is GAT-1. The following applies: cloned GAT-1; cited from earlier work.
The mark [3] stands for this setting: in vitro, crude brain membrane preparation, 1 mM NNC 05-0711, 30° C., 8 min, 0.9 nM 3H-GABA, 25 nM unlabelled GABA, read-out: IC50 (nM) in vitro, Non-GABA uptake carrier mediated uptake of 3H-GABA.

The structures appear in SMILES notation. Where a name gives a salt, the structure may show the parent alone. Read-outs that look alike come from different tables or passages of the source.

On to `O=C(O)C1CCCN(CCC=C(c2ccccc2)c2ccccc2)C1` (centres unmarked) [SK&F 89976A, N-(4,4-diphenyl-3-buten-1-yl)nipecotic acid], for which, in the test with GABA uptake [1], the “inhibition of GABA uptake, oral activity” value is “orally active inhibitors of GABA uptake”.

With `C=CCN(CC=C)c1ccc2c(c1)c1cc(-c3nc(CC)no3)ncc1n2CCCN1CCC(O)(c2ccccc2)CC1` [Compound 20, 1-(3-(3-(3-Ethyl-1,2,4-oxadiazol-5-yl)-6-dipropenylamino-9H-β-carbolin-9-yl)-1-propyl-4-phenylpiperidin-4-ol hydrochloride], at GABA uptake carrier (setting [3]), the IC50 worked out at 5380 nM.

For the molecule `O=C(O)C1=CCCN(CCC=C(c2ccccc2)c2ccccc2)C1` [SK&F 100330A, N-(4,4-diphenyl-3-buten-1-yl)guvacine], the “inhibition of GABA uptake, oral activity” value in the test with GABA uptake [1] is recorded as “orally active inhibitors of GABA uptake”.

For the molecule `O=C(O)C1CCCN(CCC=C(c2ccccc2)c2cccs2)C1` (centres unmarked) [SK&F 100604J, N-(4-phenyl-4-(2-thienyl)-3-buten-1-yl)nipecotic acid], the “inhibition of GABA uptake, oral activity” value in the test on GABA uptake [1] was “orally active inhibitors of GABA uptake”.

For `CCOC(=O)c1cc2c(cn1)[nH]c1ccc([N+](=O)[O-])cc12` [Compound 15, 6-Nitro-9H-β-carboline-3-carboxylic acid ethyl ester], the IC50 at GABA uptake carrier was found to be 6380 nM.

Turning to `O=C(O)C1CCCNC1` (centres unmarked) [nipecotic acid, 3-piperidinecarboxylic acid], in the test on GABA uptake [2], the “inhibition of GABA uptake from the synaptic cleft” value is recorded as “potent inhibitor of GABA uptake”. Besides, in the test on GAT-1, the “sensitivity of GAT-1” value is “high sensitivity”.

With `OC1(c2ccccc2)CCN(CCCn2c3ccccc3c3cc(-c4nc(-c5ccccc5)no4)ncc32)CC1` [Compound 10, 1-(3-(3-(3-Phenyl-1,2,4-oxadiazol-5-yl)-9H-β-carbolin-9-yl)-1-propyl)-4-phenylpiperidin-4-ol hydrochloride], the IC50 at GABA uptake carrier amounted to 1440 nM.

With `CCc1noc(-c2cc3c4cc(N(C)C)ccc4n(CCCN4CCC(O)(c5ccccc5)CC4)c3cn2)n1` [Compound 24], the IC50 at GABA uptake carrier (setting [3]) turned out to be 4690 nM.

As to `OC1(c2ccccc2)CCN(CCCn2c3ccccc3c3cc(-c4nc(C5CC5)no4)ncc32)CC1` [Compound 7, 1-(3-(3-(3-Cyclopropyl-1,2,4-oxadiazol-5-yl)-9H-β-carbolin-9-yl)-1-propyl)-4-phenylpiperidin-4-ol hydrochloride], the IC50 at GABA uptake carrier was 1090 nM.

Consider `O=C(O)CC1CCN(CCC=C(c2ccccc2)c2ccccc2)C1` (stereo not drawn) [SK&F 100561, N-(4,4-diphenyl-3-buten-1-yl)-homo-β-proline], for which the “inhibition of GABA uptake, oral activity” value in the test with GABA uptake [1] is on record as “orally active inhibitors of GABA uptake”.

For `Cc1nc(-c2cc3c4ccccc4n(CCCN4CCC(O)(c5ccccc5)CC4)c3cn2)no1` [Compound 28, 1-(3-(5-Methyl-1,2,4-oxadiazol-3-yl)-β-carbolin-9-yl)-1-propyl)-4-phenylpiperidin-4-ol hydrochloride], the IC50 on GABA uptake carrier (setting [3]) was determined as 1240 nM.

Turning to `CCc1noc(-c2cc3c4ccccc4n(CCCN4CCC(O)(c5ccccc5)CC4)c3cn2)n1` [Compound 4, 1-(3-(3-(3-Ethyl-1,2,4-oxadiazol-5-yl)-9H-β-carbolin-9-yl)-1-propyl)-4-phenylpiperidin-4-ol], at GABA uptake carrier (setting [3]), the IC50 was determined as 932 nM.

For `Cc1noc(-c2cc3c4ccccc4n(CCCN4CCC(O)(c5ccccc5)CC4)c3cn2)n1` [Compound 26, 1-(3-(3-Methyl-1,2,4-oxadiazol-5-yl)-β-carbolin-9-yl)-1-propyl)-4-phenylpiperidin-4-ol hydrochloride], at GABA uptake carrier (setting [3]), the IC50 was determined as 1640 nM.

In general, IC50 refers to the concentration at which inhibition is half-maximal.
